Laboratory results: US20250186448A1 (Mezzion Pharma Co., Ltd., priority 2021, published 2025)
Where “and” joins values, the source holds several entries; their conditions need not be identical. Equal values may be shown once.

Experiments:
[1] = test system: adolescents with Single Ventricle Heart Disease who underwent Fontan palliation; assay: FALD study: circulating biomarkers of heart failure and liver fibrosis (HA, PIIINP, TIMP-1, BNP and others); format: in vivo, human; parameters: HA, Post Baseline / TIMP−1, Post Baseline: unit not given beside the values; HA, Change from Baseline / TIMP−1, Change from Baseline / BNP, Change from Baseline: unit not given here; settings: Cohort U− (udenafil for 52 weeks), individual subject
Excerpt: As noted previously, increased liver stiffness can be secondary to hepatic congestion and/or hepatic fibrosis. […] For instance, patients with increased liver stiffness due to hepatic congestion may have increased biomarkers of heart failure (e.g., BNP, NT-proBNP). […] The relative contribution of congestion or fibrosis (as determined by biomarker profiles) to the observed level of liver stiffness may correlate with which therapeutic strategies are likely to be successful in a particular patient. Therefore, in this aim, we sought to determine which circulating biomarkers correlate with measures of liver stiffness and which correlate with a change in liver stiffness with udenafil treatment. We used both a directed approach, with an analysis of candidate biomarkers validated for other disease processes, and a non-directed approach, which identifies novel biomarkers associated with FALD. The FALD study, ClinicalTrials.gov Identifier: NCT03430583, which is incorporated herein by reference in its entirety, was an open-label extension study that integrated with the FUEL Extension Trial. […] Both the U− cohort and the U+ cohort had liver stiffness measured by ultrasound and MR elastography (where available), and ELF biomarkers analyzed, as described above. […] The Enhanced Liver Fibrosis (ELF) scores were based on the serum levels of hyaluronic acid (HA), amino-terminal propeptide of type III collagen (PIIINP), and tissue inhibitor of metalloproteinase-1 (TIMP-1). Testing was performed by the FUEL-OLE Central Laboratory using the serum samples. In accordance with prior studies, we assigned those patients with scores of <7.7 to the no-fibrosis or mild fibrosis group, 7.7-9.8 to the moderate fibrosis group, 9.8-11.3 to the severe fibrosis group, and >11.3 to the cirrhosis group.

[2] = test system: adolescents with Fontan physiology; assay: FUEL trial: safety, adverse event reports; format: in vivo, human
Excerpt: The primary outcome was the change in oxygen consumption at peak exercise (max or peak VO2) from baseline to the 26-week visit. Secondary exercise outcomes included change in additional measures at maximal exertion, as well as change in measures of submaximal exercise at the ventilatory anaerobic threshold (VAT). The primary outcome for clinical secondary aims included change in myocardial performance index (MPI), an echocardiographically-derived measure of systolic and diastolic ventricular function, change in log-transformed reactive hyperemia index (lnRHI), a PAT-derived measure of peripheral vascular function, and change in log-transformed serum BNP level. Safety was monitored through adverse event reports, which were collected according to a pre-specified protocol of study coordinator outreach, and through ad hoc patient and family communication with members of the study team at each site.
The primary outcome for clinical secondary aims included the between group differences in change in myocardial performance index (MPI), an echocardiographically-derived measure of systolic and diastolic ventricular function, change in log-transformed reactive hyperemia index (lnRHI), a PAT-derived measure of peripheral vascular function, and change in log-transformed serum BNP level. Measurements for each of these secondary outcomes were performed at core labs. Safety was monitored through adverse event reports, which were collected according to a pre-specified protocol of study coordinator outreach, and through ad hoc patient and family communication with members of the study team at each site.

CCCOc1ccc(S(=O)(=O)NCCC2CCCN2C)cc1-c1nc2c(CCC)nn(C)c2c(=O)[nH]1 (centres unmarked) [Udenafil, udenafil]
BNP, % Change from Baseline [1]: −83.33% and −55.56% and −96.2963% and −33.75% and −25.17% and −20% | BNP, Change from Baseline [1]: −5 and −25 and −26 and −10.7 and −3.7 and −6.5 and −3 | HA, % Change from Baseline [1]: −23.28% and −55.89% and −92.1% and −78.47% and 255.6% and 69.68% | HA, Change from Baseline [1]: −10.87 and −67.92 and −82.42 and −137.35 and 54.28 and 27.67 and 3.05 | PIIINP, % Change from Baseline [1]: −52.39% and −50.4522% and 5.12% and −50.05% and −15.3% and 66.2% | PIIINP, Change from Baseline [1]: −19.04 and −15.62 and 0.77 and −23.08 and −2.33 and 9.99 and 1.99 | TIMP−1, % Change from Baseline [1]: 1.424% and 1.608% and 25.82% and −5.136% and 3.739% and 19.54% | TIMP−1, Change from Baseline [1]: 2.3 (2×) and 39.4 and −9.8 and 6.2 and 47.1 and 56.3 | BNP, Post Baseline ([1]; Post Baseline visit (52 week)): 1 (2×) and 20 and 21 and 11 and 26 and 3 | HA, Post Baseline ([1]; Post Baseline visit (52 week)): 35.83 and 53.6 and 7.07 and 37.68 and 75.52 and 67.38 and 23.1 | PIIINP, Post Baseline ([1]; Post Baseline visit (52 week)): 17.3 and 15.34 and 15.81 and 23.03 and 12.9 and 25.08 and 27.3 | TIMP−1, Post Baseline ([1]; Post Baseline visit (52 week)): 163.8 and 145.3 and 192 and 181 and 172 and 288.2 and 290.4 | Deaths in the study cohort ([2]; FUEL trial): no deaths | Non-serious adverse event: Dizziness, participants ([2]; human, in vivo, 6 months): 16 (8.0) n (%) | Non-serious adverse event: Epistaxis, participants ([2]; human, in vivo, 6 months): 21 (10.5) n (%) | Non-serious adverse event: Flushing, participants ([2]; human, in vivo, 6 months): 32 (16.0) n (%) | Non-serious adverse event: Headache, participants ([2]; human, in vivo, 6 months): 79 (39.5) n (%) | Non-serious adverse event: Nausea/vomiting, participants ([2]; human, in vivo, 6 months): 31 (15.5) n (%) | Participants who experienced a serious adverse event ([2]; human, in vivo, 6 months): 14 | Serious adverse events with possible, probable, or definite relationship to study drug, number of events ([2]; human, in vivo, 6 months): 3 | Headache, facial flushing, abdominal pain, epistaxis, and erection (male participants), frequency vs placebo ([2]; in vivo): more common in the udenafil group | Priapism ([2]; in vivo): no reported episodes of priapism | Non-serious adverse event: Increased erection, participants ([2]; male, human, in vivo, 6 months): 13 (11.7) n (%)
